Measured values taken from patent US6444669B1, “8,8A-DIHYDROINDENO[1,2-D]THIAZOLE DERIVATIVES WHICH CARRY IN THE 2-POSITION A SUBSTITUENT HAVING A SULFONAMIDE STRUCTURE OR SULFONE STRUCTURE; PROCESSES FOR THEIR PREPARATION AND THEIR USE AS MEDICAMENTS” (Aventis Pharma Deutschland GmbH, priority 2000, dated 2002).

How the values were obtained:
male or female NMRI mice = test: Anorectic action: cumulated evaporated milk consumption after 24 h feed withdrawal; format: in vivo
Description: The anorectic action was tested on male or female NMRI mice. After withdrawal of feed for 24 hours, the test preparation was administered via a stomach tube. Kept individually and with free access to drinking water, the animals were offered evaporated milk 30 minutes after the administration of the preparation. The consumption of evaporated milk was determined half-hourly for 3 hours and the general condition of the animals was observed. The measured milk consumption was compared with that of untreated control animals.

In the case of `NS(=O)(=O)c1ccc(C2=NC3(O)c4ccc(Cl)cc4CC3S2)cc1` (stereo not drawn) [Example 5, 4-(6-Chloro-3a-hydroxy-8,8a-dihydro-3aH-indeno[1,2-d]thiazol-2-yl)benzenesulfonamide], the “Reduction of the cumulated milk consumption in % of the control” value (male or female NMRI mice; male animals, oral dose 50 mg/kg, compared with untreated control animals) is reported as 95%, the “cumulated milk consumption of the treated animals” value (male or female NMRI mice; oral dose 50 mg/kg via stomach tube, N=5, milk consumption determined half-hourly for 3 hours) is reported as 5/0.08 ml and the melting point is reported as 160 °C.
